Results taken from patent publication US20090304606A1, “Method for removing debris from tooth and bone surface using irrigation solution” (priority 2006, published 2009).

Test: Effect of surfactants on stability of citric acid solutions, accelerated aging on a hot plate
Format: physicochemical
Protocol: In the following example, the stability of solutions containing an acid component and different surfactants (surfactants) was evaluated. Solutions of 4.4% citric acid and 0.5% surfactant were prepared. The solutions were placed in clear glass bottles, and the bottles were placed on a hot plate to approximate accelerated aging conditions. The temperature of the liquids in the bottle was about 60° C., although some variations occurred depending upon the position of the bottle.

Observations (stability of solution)	Sequence
Yellow precipitate formed at bottom	POLOXAMER 407
Slightly cloudy after 64 days.	POLOXAMER 237
